For test [1], the target named is T1, Kinesin-1 heavy chain (Homo sapiens) (UniProt P33176).
T1 sequence (whole entry): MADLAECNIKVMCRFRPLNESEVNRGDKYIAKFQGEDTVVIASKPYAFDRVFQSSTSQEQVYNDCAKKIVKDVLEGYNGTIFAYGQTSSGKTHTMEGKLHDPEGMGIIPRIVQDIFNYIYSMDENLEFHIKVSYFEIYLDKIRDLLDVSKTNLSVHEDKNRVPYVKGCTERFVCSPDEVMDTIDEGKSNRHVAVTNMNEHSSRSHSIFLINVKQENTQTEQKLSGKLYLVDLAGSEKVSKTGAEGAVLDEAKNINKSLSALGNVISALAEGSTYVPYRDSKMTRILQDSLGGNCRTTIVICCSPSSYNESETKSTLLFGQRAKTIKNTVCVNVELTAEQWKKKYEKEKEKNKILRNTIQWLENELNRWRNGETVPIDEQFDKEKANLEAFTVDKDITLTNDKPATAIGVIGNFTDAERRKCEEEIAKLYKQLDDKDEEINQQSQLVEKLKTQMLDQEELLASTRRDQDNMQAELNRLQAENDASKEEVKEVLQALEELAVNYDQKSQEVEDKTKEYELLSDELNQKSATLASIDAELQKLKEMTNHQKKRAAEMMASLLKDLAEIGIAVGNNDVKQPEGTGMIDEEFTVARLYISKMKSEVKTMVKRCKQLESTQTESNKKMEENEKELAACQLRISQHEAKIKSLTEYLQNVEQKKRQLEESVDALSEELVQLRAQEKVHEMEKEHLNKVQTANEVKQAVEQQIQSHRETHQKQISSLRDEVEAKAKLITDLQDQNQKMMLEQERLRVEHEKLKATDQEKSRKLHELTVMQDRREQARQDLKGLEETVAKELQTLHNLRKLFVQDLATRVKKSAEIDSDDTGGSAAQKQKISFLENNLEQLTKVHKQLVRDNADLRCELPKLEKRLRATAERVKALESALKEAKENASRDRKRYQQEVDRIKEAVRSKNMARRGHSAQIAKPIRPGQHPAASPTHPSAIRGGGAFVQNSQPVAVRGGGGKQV
Briefly: Inhibition of KNH (unknown origin)-mediated ATP hydrolysis assessed as residual activity at 10 uM after 10 to 20 mins by spectrophotometric analysis.

For test [2], the target named is T2, Kinesin-like protein KIFC3 (Homo sapiens) (UniProt Q9BVG8).
T2 sequence (whole entry): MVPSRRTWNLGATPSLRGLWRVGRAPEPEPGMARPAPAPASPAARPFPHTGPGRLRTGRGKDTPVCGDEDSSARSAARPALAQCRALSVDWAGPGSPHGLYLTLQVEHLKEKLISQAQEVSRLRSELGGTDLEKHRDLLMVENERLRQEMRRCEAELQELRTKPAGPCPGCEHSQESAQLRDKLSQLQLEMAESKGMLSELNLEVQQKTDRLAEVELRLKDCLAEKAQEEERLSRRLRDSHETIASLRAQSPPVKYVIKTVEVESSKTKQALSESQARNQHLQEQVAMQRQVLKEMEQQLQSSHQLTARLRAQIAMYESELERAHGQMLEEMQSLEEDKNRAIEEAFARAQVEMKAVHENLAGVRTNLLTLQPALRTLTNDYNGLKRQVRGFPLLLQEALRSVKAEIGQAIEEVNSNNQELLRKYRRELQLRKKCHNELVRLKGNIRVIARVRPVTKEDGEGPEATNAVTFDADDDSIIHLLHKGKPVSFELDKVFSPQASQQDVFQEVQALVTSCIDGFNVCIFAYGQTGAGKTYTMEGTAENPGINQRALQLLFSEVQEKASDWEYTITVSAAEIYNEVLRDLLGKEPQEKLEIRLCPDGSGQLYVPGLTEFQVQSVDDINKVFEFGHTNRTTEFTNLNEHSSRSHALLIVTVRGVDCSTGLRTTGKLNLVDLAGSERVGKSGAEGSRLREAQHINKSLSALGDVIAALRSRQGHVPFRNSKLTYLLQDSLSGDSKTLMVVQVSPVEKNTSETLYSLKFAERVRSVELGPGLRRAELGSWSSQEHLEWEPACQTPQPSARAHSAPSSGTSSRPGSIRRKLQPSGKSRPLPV
Briefly: Inhibition of KIFC3 (unknown origin)-mediated ATP hydrolysis assessed as residual activity at 10 uM after 10 to 20 mins by spectrophotometric analysis.

For test [3], the target named is T3, Kinesin-like protein KIF2C (Homo sapiens) (UniProt Q99661).
T3 sequence (whole entry): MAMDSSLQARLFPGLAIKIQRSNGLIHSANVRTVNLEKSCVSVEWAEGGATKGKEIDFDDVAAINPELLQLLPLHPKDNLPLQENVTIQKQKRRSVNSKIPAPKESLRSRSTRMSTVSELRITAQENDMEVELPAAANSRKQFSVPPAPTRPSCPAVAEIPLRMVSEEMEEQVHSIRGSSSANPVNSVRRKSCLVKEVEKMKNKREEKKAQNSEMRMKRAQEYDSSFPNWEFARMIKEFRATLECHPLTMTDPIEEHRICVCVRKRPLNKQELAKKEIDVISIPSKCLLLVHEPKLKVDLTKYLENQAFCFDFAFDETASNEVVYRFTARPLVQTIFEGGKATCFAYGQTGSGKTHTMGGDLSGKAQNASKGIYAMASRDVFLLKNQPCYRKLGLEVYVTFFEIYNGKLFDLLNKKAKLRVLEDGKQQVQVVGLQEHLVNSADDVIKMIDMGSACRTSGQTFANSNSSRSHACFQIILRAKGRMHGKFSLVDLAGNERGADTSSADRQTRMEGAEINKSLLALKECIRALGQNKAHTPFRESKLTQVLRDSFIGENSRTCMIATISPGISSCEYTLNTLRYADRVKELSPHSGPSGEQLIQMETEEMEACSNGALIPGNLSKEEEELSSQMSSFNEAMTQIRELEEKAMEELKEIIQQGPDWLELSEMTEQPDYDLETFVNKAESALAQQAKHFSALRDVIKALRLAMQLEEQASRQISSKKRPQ
Briefly: Inhibition of MCAK (unknown origin)-mediated ATP hydrolysis assessed as residual activity at 10 uM after 10 to 20 mins by spectrophotometric analysis.

Test [4] has as its target Centromere-associated protein E (Homo sapiens) (UniProt Q02224). The experiment in a line: Inhibition of CENP-E (unknown origin)-mediated ATP hydrolysis assessed as residual activity at 10 uM after 10 to 20 mins by spectrophotometric analysis.
Test [5] relates to SK-OV-3. Briefly: Cytotoxicity against human SKOV3 cells assessed as inhibition of KSP-mediated cell cycle progression after 44 hrs by MTT assay. In kind it is functional. As to conditions: SK-OV-3, 44 h. (Tetrazolium assays rely on reduction of a dye to a coloured formazan, in cell work by metabolically active cells.)
In test [6] the test system is SK-OV-3. The experiment in a line: Nonspecific cytotoxicity against human SKOV3 cells after 44 hrs by MTT assay. In kind it is functional. As to conditions: SK-OV-3, 44 h.
Test [7] deals with MCF7. The experiment in a line: Cytotoxicity against human MCF7 cells assessed as inhibition of KSP-mediated cell cycle progression after 44 hrs by MTT assay. In kind it is functional. Conditions: MCF7, 44 h.
The test system of test [8] is MCF7. Briefly: Nonspecific cytotoxicity against human MCF7 cells after 44 hrs by MTT assay. In kind it is functional. As to conditions: MCF7, 44 h.
Test [9] relates to PC-3. Briefly: Cytotoxicity against human PC3 cells assessed as inhibition of KSP-mediated cell cycle progression after 44 hrs by MTT assay. As to conditions: PC-3, 44 h. In kind it is functional.
In test [10] the test system is PC-3. The experiment in a line: Nonspecific cytotoxicity against human PC3 cells after 44 hrs by MTT assay. In kind it is functional. Conditions: PC-3, 44 h.
For test [11], the system named is DU-145. Briefly: Cytotoxicity against human DU145 cells assessed as inhibition of KSP-mediated cell cycle progression after 44 hrs by MTT assay. In kind it is functional. Conditions: DU-145, 44 h.
Test [12] deals with DU-145. The experiment in a line: Nonspecific cytotoxicity against human DU145 cells after 44 hrs by MTT assay. In kind it is functional. Conditions: DU-145, 44 h.
In test [13] the test system is SK-OV-3. The experiment in a line: Cell cycle arrest in human SKOV3 cells assessed as monoaster phenotype at 100 nM after 22 hrs by confocal microscopic analysis. In kind it is functional, cell-based.

The source made the active and inactive calls. No cut-off for these calls is given here.

Centromere-associated protein E (Homo sapiens), sequence (Q02224 whole entry): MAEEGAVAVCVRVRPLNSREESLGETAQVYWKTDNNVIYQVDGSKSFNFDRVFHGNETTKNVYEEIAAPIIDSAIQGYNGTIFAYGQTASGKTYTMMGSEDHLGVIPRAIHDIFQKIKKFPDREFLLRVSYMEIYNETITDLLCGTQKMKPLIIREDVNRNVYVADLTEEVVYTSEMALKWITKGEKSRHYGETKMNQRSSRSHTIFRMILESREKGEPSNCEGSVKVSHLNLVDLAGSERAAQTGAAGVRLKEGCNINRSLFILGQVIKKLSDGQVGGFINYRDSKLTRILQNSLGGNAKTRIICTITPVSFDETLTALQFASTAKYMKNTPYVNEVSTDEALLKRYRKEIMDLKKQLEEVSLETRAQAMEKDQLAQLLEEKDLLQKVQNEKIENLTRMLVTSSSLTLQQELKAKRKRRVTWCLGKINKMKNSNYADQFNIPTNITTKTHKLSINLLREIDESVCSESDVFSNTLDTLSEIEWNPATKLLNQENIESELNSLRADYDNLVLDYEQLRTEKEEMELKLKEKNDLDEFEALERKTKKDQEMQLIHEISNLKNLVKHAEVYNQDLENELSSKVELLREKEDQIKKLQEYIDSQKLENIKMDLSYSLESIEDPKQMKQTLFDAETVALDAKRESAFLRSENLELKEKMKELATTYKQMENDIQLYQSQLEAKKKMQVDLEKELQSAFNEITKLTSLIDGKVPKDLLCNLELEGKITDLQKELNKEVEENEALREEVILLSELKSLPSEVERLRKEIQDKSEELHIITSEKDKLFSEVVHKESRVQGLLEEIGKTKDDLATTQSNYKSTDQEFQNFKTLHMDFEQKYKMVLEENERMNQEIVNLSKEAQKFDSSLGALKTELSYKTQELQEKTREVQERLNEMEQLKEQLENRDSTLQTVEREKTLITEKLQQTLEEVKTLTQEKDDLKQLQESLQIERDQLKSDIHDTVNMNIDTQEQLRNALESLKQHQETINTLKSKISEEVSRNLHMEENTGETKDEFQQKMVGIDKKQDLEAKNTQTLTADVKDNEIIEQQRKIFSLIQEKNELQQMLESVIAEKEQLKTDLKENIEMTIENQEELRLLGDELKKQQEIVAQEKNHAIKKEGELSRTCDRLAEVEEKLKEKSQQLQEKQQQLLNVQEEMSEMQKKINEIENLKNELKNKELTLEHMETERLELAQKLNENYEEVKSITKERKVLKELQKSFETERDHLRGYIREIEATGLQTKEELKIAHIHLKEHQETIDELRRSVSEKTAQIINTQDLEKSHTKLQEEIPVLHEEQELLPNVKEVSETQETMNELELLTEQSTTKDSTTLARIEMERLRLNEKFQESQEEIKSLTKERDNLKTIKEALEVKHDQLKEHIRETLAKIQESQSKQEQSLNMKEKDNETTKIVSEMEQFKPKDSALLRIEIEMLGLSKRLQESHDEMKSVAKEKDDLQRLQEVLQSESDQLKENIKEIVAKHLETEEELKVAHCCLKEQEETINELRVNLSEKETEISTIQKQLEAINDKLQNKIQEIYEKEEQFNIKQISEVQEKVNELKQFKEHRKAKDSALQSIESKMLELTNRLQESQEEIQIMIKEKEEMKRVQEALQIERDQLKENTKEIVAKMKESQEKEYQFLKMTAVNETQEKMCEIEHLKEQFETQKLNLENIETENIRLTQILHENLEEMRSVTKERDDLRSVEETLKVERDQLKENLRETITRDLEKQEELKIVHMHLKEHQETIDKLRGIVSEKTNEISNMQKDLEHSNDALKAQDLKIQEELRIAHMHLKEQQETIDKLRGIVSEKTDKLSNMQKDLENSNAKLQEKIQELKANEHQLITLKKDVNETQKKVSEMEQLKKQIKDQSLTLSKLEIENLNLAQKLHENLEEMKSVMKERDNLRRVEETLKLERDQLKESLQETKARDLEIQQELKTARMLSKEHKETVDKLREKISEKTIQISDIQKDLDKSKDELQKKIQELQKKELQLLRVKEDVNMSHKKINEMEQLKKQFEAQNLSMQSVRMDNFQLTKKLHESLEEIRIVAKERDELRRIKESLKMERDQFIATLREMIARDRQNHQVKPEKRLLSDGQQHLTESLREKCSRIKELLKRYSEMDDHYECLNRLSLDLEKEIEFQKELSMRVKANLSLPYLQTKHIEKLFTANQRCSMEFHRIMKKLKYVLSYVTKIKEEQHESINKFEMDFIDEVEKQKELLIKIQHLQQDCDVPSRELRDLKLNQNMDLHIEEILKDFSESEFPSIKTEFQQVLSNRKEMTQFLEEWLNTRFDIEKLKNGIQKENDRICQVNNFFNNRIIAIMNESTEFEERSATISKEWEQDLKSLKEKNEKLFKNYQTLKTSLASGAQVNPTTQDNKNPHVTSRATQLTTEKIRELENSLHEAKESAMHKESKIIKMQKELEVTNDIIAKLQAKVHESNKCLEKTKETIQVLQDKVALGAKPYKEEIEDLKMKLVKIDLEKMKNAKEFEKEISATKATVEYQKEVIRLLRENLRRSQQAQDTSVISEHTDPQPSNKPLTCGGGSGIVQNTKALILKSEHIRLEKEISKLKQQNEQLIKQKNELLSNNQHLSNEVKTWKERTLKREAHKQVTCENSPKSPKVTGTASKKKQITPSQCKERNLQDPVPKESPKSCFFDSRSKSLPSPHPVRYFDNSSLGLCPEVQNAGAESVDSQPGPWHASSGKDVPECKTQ

`CCOC(=O)C1=C(C)NC(=S)N[C@@H]1c1cccc(O)c1`: the Activity in [1] came out at 98.5%; in test [2], 98.3%; in test [3], 97%; in test [4] it was 97.7%.

With `CC(C)C(c1nc2cc(Cl)ccc2c(=O)n1Cc1ccccc1)N(CCCN)C(=O)c1ccc(F)cc1` (racemic), the GI50 (commonly the concentration that inhibits growth by half) in the test with SK-OV-3 [5] is 2700 nM; in the test with SK-OV-3 [6] it was 4300 nM; in the test on MCF7 [7], 4000 nM; with MCF7 [8], 2700 nM; in the test with PC-3 [9] it was 1100 nM; in the test on PC-3 [10], 6300 nM. In addition, the GI50 came to 1100 nM with DU-145 [11] and 3100 nM in the test on DU-145 [12].

For `CC(C)[C@H](c1nc2cc(Cl)ccc2c(=O)n1Cc1ccccc1)N(CCCN)C(=O)c1cccc(F)c1`, in the test on SK-OV-3 [13], the result was Active.

As for `CC(C)C(c1nc2cc(Cl)ccc2c(=O)n1Cc1ccccc1)N(CCCN)C(=O)c1ccccc1F` (racemic), the GI50 in the test with SK-OV-3 [5] is 35.6 nM; with SK-OV-3 [6] it was 3100 nM; with MCF7 [7], 17.7 nM; in the test with MCF7 [8], 1900 nM; in the test with PC-3 [9], 1.9 nM; in the test with PC-3 [10] it was 350 nM. Moreover, the GI50 in the test with DU-145 [11] amounted to 48.5 nM.

These data come from ChEMBL document CHEMBL2321780, “Fluorinated quinazolinones as potential radiotracers for imaging kinesin spindle protein expression” (2013).
